In patent US9994509B2, “Inhibitors of viral replication, their process of preparation and their therapeutical uses” (HIVIH, priority 2013, dated 2018):

tested on: NL4-3 strain of HIV-1; assay: HIV-1 replication assay: cyto-protection of MT4 cells infected with NL4-3 virus, CellTiter-Glo viability readout; format: cell-based; conditions: Human immunodeficiency virus 1, NL43, 120 h; concentration leading to 50% of cyto-protection; MT4 cells infected with NL4-3 virus; 5 days incubation; CellTiter-Glo; read-out: EC50
Method: The antiviral activity, particularly against HIV, of compounds according to the invention is evaluated by the protocol described below.
Preparation of Virus stock of the NL4-3 strain of HIV-1 (Adachi et al, J Virol, 1986, 59(2):284-91).
The virus was prepared as described in Lopez et al (Lopez et al, Proc Natl Acad Sci USA., 2006, 103(40):14947-52, by transfecting 2×10^6 293 T cells (CRL-1573, ATCC) with following modifications: 6 μg of NL4-3 proviral DNA molecular clone were mixed with X-tremeGENE 9 DNA transfection reagent from Roche, and used according to manufacturer's instructions. Twenty four hours later, cells were washed and fresh medium added. Forty eight hours after transfection, cell supernatants were harvested, filtered through 0.45-μm-pore-size filters, quantified for HIV-1 p24 antigen by using an Innotest HIV antigen mAb assay (Ingen) according to manufacturer's instructions, and used in infection experiments.
Serial dilutions of compounds to be tested were prepared in complete RPMI medium from 10 mM DMSO stock solutions, and distributed in a volume of 20 μl in 96 well tissue-culture treated plates (Costar 3917), in order to get 0.5% DMSO final concentration in each well, after the addition of infected cells. Control wells contained also 0.5% DMSO final concentration but no compound.
MT4 cells (from the NIH AIDS Research and Reference Reagent Program) in RPMI complete medium were counted (10×10^6 cells per well in Falcon 353047 Multiwell™ 24 well) and infected for 2 hours at 37°, at a multiplicity of infection (moi) of 0.0001-0.00001. Cells were then centrifuged for 3 min at 3000 rpm, and washed two times in 1 ml PBS to remove viruses that have not entered the cells. Infected cells were resuspended in complete RPMI at 1.25×10^6 cells/ml, and 80 μl of infected cells were distributed in each well containing compounds to be tested or control wells. The plates were then incubated at 37° C. for 5 days.
Assay used to measure the inhibition of HIV replication by the compounds (according to Gregg S. Jones et al., Antimicrobial Agents and Chemotherapy, 2009, 53 (3): 1194-1203).
After 5 days of incubation, microplates were equilibrated to room temperature for 30 min and then 50 μl of CellTiter-Glo reagent (Promega Biosciences, Inc., Madison Wis., USA) were added to each well. Cell lysis was carried out at room temperature during 10 min and luminescence was read on a Fluoroskan (Thermo Scientific).
The EC50, or effective concentration 50, is the concentration of compound leading to 50% of cyto-protection in a CellTiter-Glo® viability assay based on MT4 cells infected with NL4-3 virus (table 1).

Compound	EC50 [nM]
Cc1ccc(C2CC2)c(-c2ccc3c(c2C)CCCO3)c1[C@H](OC(C)(C)C)C(=O)O (atropisomer, axis not shown) [Example 38, (S)-tert-butoxy-[3-cyclopropyl-6-methyl-2-(5-methyl-chroman-6-yl)-phenyl]-acetic acid]	3
Cc1ccc(C2CC2)c(-c2ccc3c(c2C)CCCO3)c1[C@H](OC1CC1)C(=O)O (atropisomer, axis not shown) [Example 40, (S)-cyclopropoxy-[3-cyclopropyl-6-methyl-2-(5-methyl-chroman-6-yl)-phenyl]-acetic acid]	14
Cc1ccc(C2CC2)c(-c2cc(F)c3c(c2C)CCCO3)c1[C@H](OC(C)(C)C)C(=O)O (atropisomer, axis not shown) [Example 41, (S)-tert-butoxy-[3-cyclopropyl-2-(8-fluoro-5-methyl-chroman-6-yl)-6-methyl-phenyl]-acetic acid]	6
Cc1ccc(C2CC2)c(-c2cc(F)c3c(c2C)CCCO3)c1[C@H](OC1CC1)C(=O)O (atropisomer, axis not shown) [Example 44, (S)-cyclopropoxy-[3-cyclopropyl-2-(8-fluoro-5-methyl-chroman-6-yl)-6-methyl-phenyl]-acetic acid]	17
Cc1ccc([C@@H]2C[C@@H]2C)c(-c2ccc3c(c2)CCCO3)c1C(OC(C)(C)C)C(=O)O (relative stereo) [Example 26, tert-Butoxy-[2-chroman-6-yl-6-methyl-3-(cis-2-methyl-cyclopropyl)-phenyl]-acetic acid]	300
Cc1ccc(C2CC2)c(-c2ccc3c(c2)CCCO3)c1C(OC(C)(C)C)C(=O)O (centres unmarked) [Example 1, 2-(tert-butoxy)-2-[3-cyclopropyl-2-(3,4-dihydro-2H-1-benzopyran-6-yl)-6-methylphenyl]acetic acid]	17
CC(C)(C)OC(C(=O)O)c1c(C(F)(F)F)ccc(C2CC2)c1-c1ccc2c(c1)CCCO2 (centres unmarked) [Example 2, 2-(tert-butoxy)-2-[3-cyclopropyl-2-(3,4-dihydro-2H-1-benzopyran-6-yl)-6-(trifluoromethyl)phenyl]acetic acid]	90
C=C(C)c1ccc(C)c(C(OC(C)(C)C)C(=O)O)c1-c1ccc2c(c1)CCCO2 (centres unmarked) [Example 4, 2-(tert-butoxy)-2-[2-(3,4-dihydro-2H-1-benzopyran-6-yl)-3-isopropenyl-6-methylphenyl]acetic acid]	34
Cc1ccc(C(C)C)c(-c2ccc3c(c2)CCCO3)c1C(OC(C)(C)C)C(=O)O (centres unmarked) [Example 5, 2-(tert-butoxy)-2-[2-(3,4-dihydro-2H-1-benzopyran-6-yl)-3-isopropyl-6-methylphenyl]acetic acid]	23
CC(C)(C)OC(C(=O)O)c1c(C(F)(F)F)ccc(C2CCCC2)c1-c1ccc2c(c1)CCCO2 (centres unmarked) [Example 6, 2-(tert-butoxy)-2-[3-(cyclopentyl)-2-(3,4-dihydro-2H-1-benzopyran-6-yl)-6-(trifluoromethyl)phenyl]acetic acid]	270
COc1c(-c2nc3ccccc3[nH]2)cc(C(F)(F)F)c(C(OC(C)(C)C)C(=O)O)c1-c1ccc2c(c1)CCCO2 (centres unmarked) [Example 7, 2-[4-(1H-1,3-benzodiazol-2-yl)-2-(3,4-dihydro-2H-1-benzopyran-6-yl)-3-methoxy-6-(trifluoromethyl)phenyl]-2-(tert-butoxy)acetic acid]	62
C=C(C)c1ccc(C(F)(F)F)c(C(OC(C)(C)C)C(=O)O)c1-c1ccc2c(c1)CCCO2 (centres unmarked) [Example 8, 2-(tert-butoxy)-2-[2-(3,4-dihydro-2H-1-benzopyran-6-yl)-3-(prop-1-en-2-yl)-6-(trifluoromethyl)phenyl]acetic acid]	190
C=Cc1ccc(C(F)(F)F)c(C(OC(C)(C)C)C(=O)O)c1-c1ccc2c(c1)CCCO2 (centres unmarked) [Example 9, 2-(tert-butoxy)-2-[2-(3,4-dihydro-2H-1-benzopyran-6-yl)-3-ethenyl-6-(trifluoromethyl)phenyl]acetic acid]	500
CC(C)c1ccc(C(F)(F)F)c(C(OC(C)(C)C)C(=O)O)c1-c1ccc2c(c1)CCCO2 (centres unmarked) [Example 10, 2-(tert-butoxy)-2-[2-(3,4-dihydro-2H-1-benzopyran-6-yl)-3-(propan-2-yl)-6-(trifluoromethyl)phenyl]acetic acid]	84
CCc1ccc(C(F)(F)F)c(C(OC(C)(C)C)C(=O)O)c1-c1ccc2c(c1)CCCO2 (centres unmarked) [Example 11, 2-(tert-butoxy)-2-[2-(3,4-dihydro-2H-1-benzopyran-6-yl)-3-ethyl-6-(trifluoromethyl)phenyl]acetic acid]	360
COc1ccc(-c2c(C3CC3)ccc(C)c2C(OC(C)(C)C)C(=O)O)cc1 (centres unmarked) [Example 12, 2-(tert-butoxy)-2-(6-cyclopropyl-4′-methoxy-3-methyl-biphenyl-2-yl]acetic acid]	78
Cc1ccc(C2CC2)c(-c2ccc3c(c2)CCCO3)c1[C@H](OC(C)(C)C)C(=O)O [Example 13, (S)-2-(tert-butoxy)-2-[3-cyclopropyl-2-(3,4-dihydro-2H-1-benzopyran-6-yl)-6-methylphenyl]acetic acid]	8
Cc1ccc(-c2c(C3CC3)ccc(C)c2C(OC(C)(C)C)C(=O)O)cc1 (centres unmarked) [Example 14, 2-(tert-butoxy)-2-(6-cyclopropyl-3,4′-dimethyl-biphenyl-2-yl)-acetic acid]	51
Cc1ccc(C2CC2)c(-c2ccc(F)cc2)c1C(OC(C)(C)C)C(=O)O (centres unmarked) [Example 15, 2-(tert-butoxy)-2-(6-cyclopropyl-4′-fluoro-3-methyl-biphenyl-2-yl)-acetic acid]	340
Cc1ccc(C2CC2)c(-c2ccc3c(c2C)CCCO3)c1C(OC(C)(C)C)C(=O)O (centres unmarked) [Example 16, 2-(tert-butoxy)-2-[3-cyclopropyl-6-methyl-2-(5-methyl-chroman-6-yl)-phenyl]acetic acid]	9
Cc1ccc(C2C[C@H]2C2CC2)c(-c2ccc3c(c2)CCCO3)c1C(OC(C)(C)C)C(=O)O (stereo partly drawn) [Example 17, (trans-3-bicyclopropyl-2-yl-2-chroman-6-yl-6-methyl-phenyl)-tert-butoxy-acetic acid]	330
Cc1ccc(C2CC2)c(C2=CCC(C)(C)CC2)c1C(OC(C)(C)C)C(=O)O (centres unmarked) [Example 18, 2-(tert-butoxy)-2-[3-cyclopropyl-2-(4,4-dimethyl-cyclohex-1-enyl)-6-methyl-phenyl]acetic acid]	19
CCOC(C(=O)O)c1c(C)ccc(C2CC2)c1-c1ccc2c(c1)CCCO2 (centres unmarked) [Example 19, 2-(2-chroman-6-yl-3-cyclopropyl-6-methyl-phenyl)-2-ethoxy-acetic acid]	400
Cc1ccc(C2CC2)c(-c2ccc(Cl)cc2)c1C(OC(C)(C)C)C(=O)O (centres unmarked) [Example 20, 2-(tert-butoxy)-2-(4′-chloro-6-cyclopropyl-3-methyl-biphenyl-2-yl)acetic acid]	54
Cc1ccc(C2CC2)c(-c2cc(F)c3c(c2C)CCCO3)c1C(OC(C)(C)C)C(=O)O (centres unmarked) [Example 21, tert-butoxy-[3-cyclopropyl-2-(8-fluoro-5-methyl-chroman-6-yl)-6-methyl-phenyl]-acetic acid]	14

same assay, conditions: Human immunodeficiency virus 1, NL43, MT4, 120 h

Compound	EC50 [nM]
Cc1ccc(CC2CC2)c(-c2ccc3c(c2)CCCO3)c1C(OC(C)(C)C)C(=O)O (centres unmarked) [Example 22, tert-Butoxy-(2-chroman-6-yl-3-cyclopropylmethyl-6-methyl-phenyl)-acetic acid]	91
